Source: patent US10647680B2, “Urea compound, preparation method therefor and medical use thereof” (Ancureall Pharmaceutical (Shanghai) Co., Ltd., priority 2016, dated 2020)

Columns and labels:
CYP2C19 = molecular target: T1, CYP2C19 (Homo sapiens, UniProt P33261); assay: P450 enzyme inhibition, CYP2C19; assay type: in vitro ADME; conditions: human liver microsomes
T1 construct: human liver microsomes (BD Gentest) (0.5 mg/mL); tissue BD Gentest; host or cells: human liver microsomes
Description: (§1) Eight cytochrome p450 enzyme inhibition reactions of human liver microsomes were performed using compound 77 of the present invention as a representative example.
(§2) The main reaction systems and processes: in 37° C. water bath, the test compounds (7 concentrations, 0, 0.25, 0.5, 5, 10, 25, and 50 uM; the final methanol concentration was 1% in the system), human liver microsomes (BD Gentest) (0.5 mg/mL) and reducing coenzyme II (Roche 10621706001) (1 mg/mL) and the corresponding cytochrome p450 enzyme probe substrate were co-incubated for 5 to 20 minutes. Among them, (1) the probe substrate for CYP1A2 was Phenacetin ([…]) (Sigma), and the selective inhibitor alpha-naphthoflavone (2 uM) (Sigma) was for parallel detection as positive control, and they were incubated for 20 minutes. (2) The probe substrate for CYP2b6 was Bupropion (40 uM) (Sigma) and the selective inhibitor Ticlopidine (10 uM) (Sigma) was for parallel detection as positive control, and they were incubated for 20 minutes. (3) The probe substrate of CYP2C8 was Amodiaquine (1 uM) (Sigma), and the selective inhibitor Montelukast (10 uM) (Sigma) was for parallel detection as positive control, and they were incubated for 20 minutes. (4) The probe substrate for CYP2C9 was Diclofenac (2.5 uM) (Sigma), and the selective inhibitor Sulphaphenazole (10 uM) (Sigma) was for parallel detection as positive control, and they were incubated for 20 minutes. (5) The probe substrate for CYP2C19 was Mephenytoin (40 uM) (Sigma), and the selective inhibitor Ticlopidine (10 uM) (Sigma) was for parallel detection as positive control, and they were incubated for 20 minutes. (6) The probe substrate for CYP2D6 was Dextromethorphan (5 uM) (Sigma), and the selective inhibitor Quinidine (10 uM) (Sigma) was for parallel detection as positive control, and they were incubated for 20 minutes. (7) The probe substrates for CYP3A4-T and CYP3A4-M were Testosterone (5 uM) (Sigma) and Midazolam (5 uM) (Sigma), respectively, and the selective inhibitor was Ketoconazole (1 uM) (Sigma), they were detected in parallel as positive control, and incubated for 5 minutes. The reaction system was quenched by adding methanol containing the corresponding internal standard. The internal standard compound was Tolbutamide (Sigma). The concentration of the corresponding metabolites was determined by LC/MS/MS. For the data analysis, the decrease in peak area of the metabolite of the sample after addition of compound 77 relative to the peak area of the metabolite of the solvent control sample was used to calculate the IC50 (concentration of the test substance at 50% inhibition). The percentages of peak areas of metabolites of CYP1A2, CYP2B6, CYP2C8, CYP2C9, 15CYP2C19, CYP2D6, CYP3A4-T, and CYP3A4-M probe substrates after addition of different concentrations of compound 77 and selective inhibitors relative to the solvent control peak areas were shown in the Table 7.

[1] = molecular target: T2, hERG potassium ion channel (Homo sapiens, UniProt Q12809); assay: hERG test (whole cell model); assay type: cell-based; conditions: for Ratio (%): n=3
T2 construct: host or cells: HEK-293
T2 sequence (Q12809 whole entry): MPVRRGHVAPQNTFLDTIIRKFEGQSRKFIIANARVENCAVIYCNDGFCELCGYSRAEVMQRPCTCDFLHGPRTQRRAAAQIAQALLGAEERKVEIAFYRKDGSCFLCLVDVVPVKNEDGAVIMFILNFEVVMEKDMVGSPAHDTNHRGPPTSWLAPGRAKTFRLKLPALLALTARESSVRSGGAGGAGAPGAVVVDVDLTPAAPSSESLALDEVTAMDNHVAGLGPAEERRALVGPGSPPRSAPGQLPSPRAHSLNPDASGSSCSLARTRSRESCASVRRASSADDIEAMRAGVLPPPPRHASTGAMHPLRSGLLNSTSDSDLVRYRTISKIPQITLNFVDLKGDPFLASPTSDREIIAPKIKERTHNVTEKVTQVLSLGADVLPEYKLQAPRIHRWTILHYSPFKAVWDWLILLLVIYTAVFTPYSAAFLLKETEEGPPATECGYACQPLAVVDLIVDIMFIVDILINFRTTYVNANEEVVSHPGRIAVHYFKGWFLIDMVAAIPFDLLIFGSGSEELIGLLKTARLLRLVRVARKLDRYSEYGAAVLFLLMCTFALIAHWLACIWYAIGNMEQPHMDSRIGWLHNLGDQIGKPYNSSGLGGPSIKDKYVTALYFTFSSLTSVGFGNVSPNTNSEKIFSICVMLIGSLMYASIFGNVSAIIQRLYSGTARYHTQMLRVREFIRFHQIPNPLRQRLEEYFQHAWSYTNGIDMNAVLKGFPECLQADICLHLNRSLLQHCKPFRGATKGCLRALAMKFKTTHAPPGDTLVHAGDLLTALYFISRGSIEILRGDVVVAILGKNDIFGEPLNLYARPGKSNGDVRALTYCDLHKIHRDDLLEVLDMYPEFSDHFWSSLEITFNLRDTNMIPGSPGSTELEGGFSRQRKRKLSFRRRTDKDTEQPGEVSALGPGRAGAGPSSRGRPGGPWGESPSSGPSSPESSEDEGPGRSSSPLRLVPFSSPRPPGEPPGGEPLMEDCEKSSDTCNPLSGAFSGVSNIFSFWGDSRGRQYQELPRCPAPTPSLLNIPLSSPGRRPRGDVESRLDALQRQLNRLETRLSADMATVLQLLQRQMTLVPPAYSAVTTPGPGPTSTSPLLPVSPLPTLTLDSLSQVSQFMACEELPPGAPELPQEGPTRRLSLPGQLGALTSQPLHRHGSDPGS
Description: The whole cell model hERG test was performed with compound 77 of the present invention as a representative example, 30 uM Quinidine (Sigma) was used as a positive control.
Procedure: hERG potassium ion channel HEK-293 cells (Krius Biology) were over-expressed, and cultured at a 37° C., 5% CO2 incubator. The culture medium was DMEM supplemented with 15% fetal bovine serum and 1% penicillin-streptomycin. The stably transfected cells were inoculated to slides, with a cell density of less than 50%, and cultured overnight. The experimental cells were transferred to an approximately 1 mL bath tank embedded in an inverted microscope platform (Diaphot, Nikon), and the extracellular fluid was perfused at a perfusion rate of 2.7 mL/min. The experiment could be started after stabilization for 5 minutes and precipitation of cells. Membrane current was recorded by HEKAEPC-10 patch clamp amplifier and […] acquisition system (HEKA Instruments Inc., D-67466 Lambrecht/Pfalz Germany). All experiments were completed at room temperature (22-24° C.). During the experiment, a P-97 microelectrode control apparatus (Sutter Instrument Company, One Digital Drive, Novato, Calif. 94949) was used to […] the electrodes (BF150-110-10). The inner diameter of the electrode was 1-1.5 mm, and the inlet resistance after filling with the liquid was 2-4 MQ. Electrophysiological stimulation of the hERG potassium channel: firstly, the membrane voltage was clamped at −80 mV, and cells were given continuous stimulation of 2 s, +20 mV voltage, to activate hERG potassium ion channel and repolarization to −50 mV for 5 s, to generate outward tail current. The stimulation frequency was once every 15 seconds. The current value was the peak value of tail current. By measuring the maximum current value of the treatment group and the control group, the ratio of the maximum current value of the treatment group to the maximum current value of the control group (Mean±SE) was calculated, to evaluate the effect of the test compounds on the hERG potassium ion channel under the test concentration. Statistics and analysis of experimental data were performed by Origin 8.5 (OriginLab Corporation, Northampton, Mass.).

CYP3A4-T = molecular target: T3, CYP3A4-T (Homo sapiens, UniProt P08684); assay: P450 enzyme inhibition, CYP3A4-T (Testosterone); assay type: in vitro ADME; conditions: human liver microsomes
T3 construct: human liver microsomes (BD Gentest) (0.5 mg/mL); tissue BD Gentest; host or cells: human liver microsomes
T3 sequence (P08684 whole entry): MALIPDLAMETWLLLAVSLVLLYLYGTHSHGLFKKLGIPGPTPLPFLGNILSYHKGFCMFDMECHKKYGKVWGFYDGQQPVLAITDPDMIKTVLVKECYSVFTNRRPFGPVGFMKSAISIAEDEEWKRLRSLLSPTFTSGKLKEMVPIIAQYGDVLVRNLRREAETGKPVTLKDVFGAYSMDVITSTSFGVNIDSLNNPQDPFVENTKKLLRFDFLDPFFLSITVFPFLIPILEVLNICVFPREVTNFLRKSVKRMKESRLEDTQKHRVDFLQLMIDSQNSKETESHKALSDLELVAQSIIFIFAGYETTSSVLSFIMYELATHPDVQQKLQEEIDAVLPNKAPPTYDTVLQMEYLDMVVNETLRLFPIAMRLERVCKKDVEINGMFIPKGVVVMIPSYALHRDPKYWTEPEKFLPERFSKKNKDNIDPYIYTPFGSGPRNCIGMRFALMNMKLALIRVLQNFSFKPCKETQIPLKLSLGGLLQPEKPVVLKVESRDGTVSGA
Description: as §1, §2

CYP2C9 = molecular target: T4, CYP2C9 (Homo sapiens, UniProt P11712); assay: P450 enzyme inhibition, CYP2C9; assay type: in vitro ADME; conditions: human liver microsomes
T4 construct: human liver microsomes (BD Gentest) (0.5 mg/mL); tissue BD Gentest; host or cells: human liver microsomes
T4 sequence (P11712 whole entry): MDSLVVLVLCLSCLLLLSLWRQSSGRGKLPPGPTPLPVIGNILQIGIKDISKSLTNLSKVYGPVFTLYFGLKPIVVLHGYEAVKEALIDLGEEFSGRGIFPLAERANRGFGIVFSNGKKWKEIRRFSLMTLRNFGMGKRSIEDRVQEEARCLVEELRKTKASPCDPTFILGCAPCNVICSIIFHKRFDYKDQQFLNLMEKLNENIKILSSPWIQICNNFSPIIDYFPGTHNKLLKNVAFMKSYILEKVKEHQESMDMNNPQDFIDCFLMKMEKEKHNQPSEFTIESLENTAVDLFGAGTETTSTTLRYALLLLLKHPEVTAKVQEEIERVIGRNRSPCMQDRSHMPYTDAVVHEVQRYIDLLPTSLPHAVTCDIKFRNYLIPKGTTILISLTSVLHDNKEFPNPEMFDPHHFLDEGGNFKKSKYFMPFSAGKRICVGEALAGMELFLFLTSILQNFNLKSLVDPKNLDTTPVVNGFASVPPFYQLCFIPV
Description: as §1, §2

T1 sequence (P33261 whole entry): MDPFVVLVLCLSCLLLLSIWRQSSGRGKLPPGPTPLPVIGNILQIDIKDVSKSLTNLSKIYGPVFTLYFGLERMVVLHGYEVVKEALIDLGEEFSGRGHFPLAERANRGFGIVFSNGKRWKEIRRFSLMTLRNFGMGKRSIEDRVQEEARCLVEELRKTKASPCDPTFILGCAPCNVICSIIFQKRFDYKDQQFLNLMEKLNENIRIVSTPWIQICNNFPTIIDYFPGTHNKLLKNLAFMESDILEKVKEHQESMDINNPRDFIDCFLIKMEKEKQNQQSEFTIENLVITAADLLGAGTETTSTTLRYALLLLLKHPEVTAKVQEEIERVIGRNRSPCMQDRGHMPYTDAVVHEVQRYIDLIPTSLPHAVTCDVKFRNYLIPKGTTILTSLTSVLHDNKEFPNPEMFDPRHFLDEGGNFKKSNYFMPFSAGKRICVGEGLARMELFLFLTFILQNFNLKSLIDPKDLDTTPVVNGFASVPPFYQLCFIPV

SMILES: COCCOc1ccc2c(c1)ncn2-c1ccc(NC(=O)Nc2cc(C(C)(C)C)n[nH]2)cc1 [Compound 77, 1-(5-tert-butyl-2H-pyrazol-3-yl)-3-{4-[5-(2-methoxyl-ethoxyl)-benzimidazol-1-yl]-phenyl}-urea]
- CYP2C19 Remaining % (CYP2C19; Concentration 0.25 uM): 104.2%
- CYP2C19 Remaining % (CYP2C19; Concentration 0.5 uM): 100.8%
- CYP2C19 Remaining % (CYP2C19; Concentration 5 uM): 106.9%
- CYP2C19 Remaining % (CYP2C19; Concentration 10 uM): 102.9%
- CYP2C19 Remaining % (CYP2C19; Concentration 25 uM): 91.3%
- CYP2C19 Remaining % (CYP2C19; Concentration 50 uM): 67.6%
- IC50 (CYP2C19; read-out: half-inhibitory concentration (IC50) of CYP2C19): > 50 µM
- Ratio (%) ([1]; Concentration 0.3 uM): 94.96%
- Ratio (%) ([1]; Concentration 1 uM): 86.71%
- Ratio (%) ([1]; Concentration 3 uM): 75.85%
- Ratio (%) ([1]; Concentration 10 uM): 53.71%
- Ratio (%) ([1]; Concentration 30 uM): 37.47%
- blocking effect on the hERG potassium ion channel ([1]; within the range of test concentrations): a certain blocking effect
- CYP3A4T Remaining % (CYP3A4-T; Concentration 0.25 uM): 108.5%
- CYP3A4T Remaining % (CYP3A4-T; Concentration 0.5 uM): 108.2%
- CYP3A4T Remaining % (CYP3A4-T; Concentration 5 uM): 104.7%
- CYP3A4T Remaining % (CYP3A4-T; Concentration 10 uM): 112.5%
- CYP3A4T Remaining % (CYP3A4-T; Concentration 25 uM): 109.9%
- CYP3A4T Remaining % (CYP3A4-T; Concentration 50 uM): 101.2%
- inhibitory effect on CYP3A4-T (CYP3A4-T; Concentration 50 uM): no significant inhibitory effect
- CYP2C9 Remaining % (CYP2C9; Concentration 0.25 uM): 99.6%
- CYP2C9 Remaining % (CYP2C9; Concentration 0.5 uM): 104.5%
- CYP2C9 Remaining % (CYP2C9; Concentration 5 uM): 99.0%
- CYP2C9 Remaining % (CYP2C9; Concentration 10 uM): 90.9%
- CYP2C9 Remaining % (CYP2C9; Concentration 25 uM): 72.5%
- CYP2C9 Remaining % (CYP2C9; Concentration 50 uM): 39.9%
- IC50 (CYP2C9; read-out: half-inhibitory concentration (IC50) of CYP2C9): 41.6 µM
